Assay results from PubChem BioAssay (NCI).
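Compound exposure: 48 hours, 5 concentrations, 96-well plates. The concentration for 50% growth inhibition is given as GI50. TGI denotes the concentration required for complete inhibition of growth.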

Columns and labels:
Test in all cases: growth of human tumour cells (NCI), 48 h; in the data active = GI50 below about 0.43 µM; inactive = the rest
[1] = system: SN12C renal
[2] = system: PC-3 prostate
[3] = system: T-47D breast
[4] = system: SR leukemia
[5] = system: SK-MEL-5 melanoma
[6] = system: IGROV1 ovarian
[7] = system: UACC-62 melanoma
[8] = system: HS 578T breast
[9] = system: CAKI-1 renal
[10] = system: OVCAR-8 ovarian
[11] = system: 786-0 renal
[12] = system: NCI-H23 lung
[13] = system: HOP-92 NSCLC
[14] = system: NCI-H226 lung
[15] = system: A549 NSCLC
[16] = system: SW-620 colon
[17] = system: HT29 colon
[18] = system: SK-MEL-28 melanoma
[19] = system: HL-60(TB) leukemia
[20] = system: DU-145 prostate
[21] = system: ACHN renal
[22] = system: TK-10 renal
[23] = system: HCT-116 colon
[24] = system: SNB-19 CNS
[25] = system: HOP-62 NSCLC
[26] = system: NCI-H522 lung
[27] = system: MOLT-4 leukemia
[28] = system: RXF 393 renal
[29] = system: MCF7 breast
[30] = system: NCI/ADR-RES ovarian
[31] = system: KM12 colon
[32] = system: CCRF-CEM leukemia
[33] = system: HCT-15 colon
[34] = system: OVCAR-5 ovarian
[35] = system: HCC-2998 colon
[36] = system: MALME-3M melanoma
[37] = system: MDA-MB-231 breast
[38] = system: UACC-257 melanoma
[39] = system: SK-OV-3 ovarian
[40] = system: OVCAR-3 ovarian
[41] = system: SF-539 CNS
[42] = system: EKVX NSCLC
[43] = system: COLO 205 colon
[44] = system: U251 CNS
[45] = system: RPMI-8226 leukemia
[46] = system: M14 melanoma
[47] = system: NCI-H460 lung
[48] = system: SF-268 CNS
[49] = system: SK-MEL-2 melanoma
[50] = system: LOX IMVI melanoma
[51] = system: K-562 leukemia
[52] = system: MDA-MB-435
[53] = system: OVCAR-4 ovarian
[54] = system: BT-549 breast
[55] = system: SF-295 CNS
[56] = system: SNB-75 CNS
[57] = system: UO-31 renal
[58] = system: A498 renal

O=C(OCC1OC(n2cc(C(F)(F)F)c(=O)[nH]c2=O)CC1OC(=O)c1ccc([N+](=O)[O-])cc1)c1ccc([N+](=O)[O-])cc1 (stereo unspecified)
18.6 µM: TGI [11]
> 100 µM: TGI [1] | TGI [2] | TGI [3] | TGI [4] | TGI [5] | TGI [6] | TGI [7] | TGI [8] | TGI [9] | TGI [10] | TGI [12] | TGI [13] | TGI [14] | TGI [15] | TGI [16] | TGI [17] | TGI [18] | TGI [19] | TGI [20] | TGI [21] | TGI [22] | TGI [23] | TGI [24] | TGI [25] | TGI [26] | TGI [27] | TGI [28] | TGI [29] | TGI [30] | TGI [31] | TGI [32] | TGI [33] | TGI [34] | TGI [35] | TGI [36] | TGI [37] | TGI [38] | TGI [39] | TGI [40] | TGI [41] | TGI [42] | TGI [43] | TGI [44] | TGI [45] | TGI [47] | TGI [48] | TGI [49] | TGI [50] | TGI [51] | TGI [52] | TGI [53] | TGI [54] | TGI [55] | TGI [56] | TGI [57]
7.82 µM: TGI [46]
inactive: GI50 [1] 4.28 µM | GI50 [2] 8.74 µM | GI50 [3] 7.88 µM | GI50 [4] 11.3 µM | GI50 [5] 4.55 µM | GI50 [6] 25.4 µM | GI50 [7] 1410 nM | GI50 [8] > 100 µM | GI50 [9] 3.29 µM | GI50 [10] 6.91 µM | GI50 [11] 3.11 µM | GI50 [12] > 100 µM | GI50 [13] 8.55 µM | GI50 [14] 9.42 µM | GI50 [15] 4.95 µM | GI50 [16] 6.2 µM | GI50 [17] > 100 µM | GI50 [18] > 100 µM | GI50 [19] 7.37 µM | GI50 [20] 885 nM | GI50 [21] 1170 nM | GI50 [22] > 100 µM | GI50 [23] 8.5 µM | GI50 [24] > 100 µM | GI50 [25] 8.97 µM | GI50 [26] 5.65 µM | GI50 [27] 14.8 µM | GI50 [28] 4.54 µM | GI50 [29] 1260 nM | GI50 [30] 16.7 µM | GI50 [31] > 100 µM | GI50 [32] 3.86 µM | GI50 [33] 20.8 µM | GI50 [34] 41.8 µM | GI50 [35] 5.38 µM | GI50 [36] 92.3 µM | GI50 [37] > 100 µM | GI50 [38] 2700 nM | GI50 [39] 8.51 µM | GI50 [40] 23.8 µM | GI50 [41] 2030 nM | GI50 [42] > 100 µM | GI50 [43] > 100 µM | GI50 [44] 9.08 µM | GI50 [45] 2120 nM | GI50 [46] 1960 nM | GI50 [47] 3.43 µM | GI50 [48] 3.87 µM | GI50 [49] > 100 µM | GI50 [50] 4.81 µM | GI50 [51] 94 µM | GI50 [52] 2360 nM | GI50 [53] 54.7 µM | GI50 [54] 7.42 µM | GI50 [55] 3.72 µM | GI50 [56] 8.92 µM | GI50 [57] 3.77 µM

NNC(=O)c1ccccc1Nc1nc(-c2cccs2)nc2ccc(Br)cc12
> 100 µM: TGI [1] | TGI [2] | TGI [3] | TGI [4] | TGI [5] | TGI [6] | TGI [7] | TGI [8] | TGI [9] | TGI [10] | TGI [11] | TGI [12] | TGI [13] | TGI [14] | TGI [15] | TGI [16] | TGI [17] | TGI [18] | TGI [19] | TGI [20] | TGI [21] | TGI [22] | TGI [58] | TGI [23] | TGI [24] | TGI [25] | TGI [26] | TGI [27] | TGI [29] | TGI [30] | TGI [31] | TGI [32] | TGI [33] | TGI [34] | TGI [35] | TGI [36] | TGI [37] | TGI [38] | TGI [39] | TGI [40] | TGI [41] | TGI [42] | TGI [43] | TGI [44] | TGI [45] | TGI [46] | TGI [47] | TGI [48] | TGI [49] | TGI [50] | TGI [51] | TGI [52] | TGI [53] | TGI [54] | TGI [55] | TGI [56] | TGI [57]
